Assays:
MgtC = assay type: cell-based, Bacillus sp. BCG+1; conditions: E. coli DH5α pDrive::mgtC, whole cell catalysis
GtfC = assay: Biotransformation assays with E. coli expressing recombinant GtfC, quantified by TLC; assay type: cell-based, Elbe river sediment metagenome; conditions: for Conversion (%): whole-cell biotransformation, 50 mL, 50 mM sodium phosphate buffer pH 7.0, 1% (w/v) glucose, 200 μM flavonoid, 30° C., triplicate; for Conversion in GtfC biotransformation (in words): whole-cell biotransformation with E. coli expressing GtfC
Description: The supernatant was applied in TLC analysis.
(§1) The supernatant transferred into HPLC flat bottom vials was used for TLC analysis. Samples of 20 μL were applied on 20×10 cm^2 (HP)TLC silica 60 F254 plates (Merck KGaA, Darmstadt, Germany) versus 200 pmol of reference flavonoids. To avoid carryover of substances, i.e. prevent false positives, samples were spotted with double syringe rinsing in between by the ATS 4. The sampled TLC plates were developed in ethyl acetate/acetic acid/formic acid/water 100:11:11:27 (‘Universal Pflanzenlaufmittel’) (41). After separation the TLC plates were dried in an oven at 80° C. for five minutes. The absorbance of the separated bands was determined densitometrically depending on the absorbance maximum of the applied educt substances at 285 to 370 nm using the deuterium lamp in a TLC Scanner 3 (CAMAG, Muttenz, Switzerland). Subsequently, the substances on developed TLC plates were derivatized by dipping the plates in a methanolic solution of 1% (w/v) diphenyl boric acid β-aminoethyl ester (DPBA) (42) for one second using a Chromatogram Immersion Device (CAMAG, Muttenz, Switzerland) followed by drying the TLC plates in hot air with a fan. After two minutes the bands were visualized at 365 nm with a UV hand lamp and photographed. Alternatively, fluorescence of the bands was determined densitometrically by the TLC Scanner 3 depending on the absorbance maximum of the applied substances at 320 to 370 nm.
(§2) Samples of 20 μL were sprayed by an ATS 4 (CAMAG, Muttenz, Switzerland) on HPTLC silica 60 F254 plates (Merck KGaA, Darmstadt, Germany) versus different amounts of respective standard educt and product substances. TLC plates were developed, dried, derivatized and analyzed as stated above. Regression curves were calculated from the peak area of the applied reference substances to determine the amount of produced and residual flavonoids.

MgtB = assay: Biocatalytic reactions with purified recombinant His-tagged MgtB and UDP-glucose, quantified by TLC; assay type: biochemical, Bacillus sp. HH1500; conditions: for Acceptor substrate modification by His10-MgtB (in words): 500 μM UDP-α-D-glucose as donor, 100 μM acceptor substrate; for Conversion (%): 1 mL, 37° C., 2 hours, triplicate, 500 μM UDP-glucose, 100 μM flavonoid, 5 μg/mL purified recombinant MgtB
Description: as §1, §2

MgtW = conditions: E. coli DH5α pDrive::mgtW, whole cell catalysis
Description: (§3) For the detection of flavonoid modifications in bacteria a biotransformation approach was used. Cultures were grown in LB medium with appropriate antibiotic overnight. Expression cultures were prepared as stated above for overproduction of enzymes. The cells were sedimented by centrifugation at 4,500 g and resuspended in 50 mM sodium phosphate buffer pH 7 supplemented with 1% (w/v) α-D-glucose. Biotransformations with a final concentration of 100 μM flavonoid inoculated from stock solutions of 100 mM in DMSO, i.e. 0.1%, were incubated in Erlenmeyer flasks at 30° C. and 175 rpm up to 24 hours. Samples of 4 mL were withdrawn and acidified with 100 μL H3PO4 aq for extraction in 2 mL ethyl acetate. They were shaken for 1 minute and phase separated by centrifugation at 2,000 g and 4° C. The supernatant was applied in TLC analysis. For quantification, samples of 100 μL were taken and dissolved 1/10 in ethyl acetate/acetic acid 3:1. These acidified ethyl acetate samples were centrifuged at 10,000 g. The supernatant was used for quantitative TLC analysis as stated below.

MgtT = conditions: E. coli DH5α pDrive::mgtT, whole cell catalysis
Description: as §3

SMILES | Reaction in biotransformation with MgtC (MgtC) | Conversion (%) (GtfC) | Acceptor substrate modification by His10-MgtB (in words) (MgtB) | Conversion (%) (MgtB) | also measured
O=c1cc(-c2ccc(O)c(O)c2)oc2cc(O)cc(O)c12 [Luteolin] | shown | 86% | modified with high yields | 82% | –
O=c1c(O)c(-c2ccc(O)cc2)oc2cc(O)cc(O)c12 [Kaempferol] | – | ~100% | modified with high yields | ~100% | Conversion (%) (MgtB; listed as kaempferol): approximately 100%
O=C(/C=C/c1ccc(O)cc1)OC[C@H]1O[C@@H](Oc2c(-c3ccc(O)cc3)oc3cc(O)cc(O)c3c2=O)[C@H](O)[C@@H](O)[C@@H]1O [Tiliroside, kaempferol-3-O-6″-coumaroyl-glucoside] | – | – | modified with high yields | 83% | –
COc1cc([C@@H]2CC(=O)c3c(O)cc(O)cc3O2)ccc1O [homoeriodytiol] | shown | – | – | – | Reaction in biotransformation with MgtW (MgtW): shown; Reaction in biotransformation with MgtT (MgtT): shown
COc1cc(O)c(CC=C(C)C)c(O)c1C(=O)/C=C/c1ccc(O)cc1 [Xanthohumol] | – | 52% | – | – | –
O=c1cc(-c2ccc(O)cc2)oc2cc(O)cc(O)c12 [apigenin] | shown | – | – | – | –
COc1ccc(-c2cc(=O)c3ccc(O)cc3o2)cc1 [Pratol] | – | – | – | – | Conversion in GtfC biotransformation (in words) (GtfC): converted weakly
Oc1ccc(/C=C/c2cc(O)cc(O)c2)cc1 [t-Resveratrol] | – | 96% | – | – | –
O=C(CCc1ccc(O)cc1)c1c(O)cc(O)cc1O [phloretin] | shown | – | – | – | Reaction in biotransformation with MgtW (MgtW): shown; Reaction in biotransformation with MgtT (MgtT): shown
Cc1cc(=O)oc2cc(O)ccc12 [4-Methylumbelliferone, 7-Hydroxy-4-methylcoumarin] | – | – | – | – | Reaction in biotransformation with MgtT (MgtT): shown
O=c1c(-c2ccc(O)cc2)coc2cc(O)cc(O)c12 [Genistein] | – | 68% | modified with high yields | 72% | –
O=c1c(O)c(-c2ccc(O)c(O)c2)oc2cc(O)cc(O)c12 [Quercetin] | shown | ~100% | modified with high yields | ~100% | Reaction in biotransformation with MgtW (MgtW): shown; Conversion in GtfC biotransformation (in words) (GtfC): transformed almost completely; Conversion (%) (MgtB; listed as quercetin): approximately 100%
Cc1cc(=O)c2c(O)cc(O)cc2o1 [noreugenin] | shown | – | – | – | –

Source: patent publication US20160090578A1, “ENZYMES […] GLYCOSYLATION OF POLYPHENOLS” (priority 2013, published 2016)
